Experimental data as given in patent publication US8227459B2, “Diamino-phenothiazinyl derivatives as antiviral treatments” (priority 2007, dated 2012).

Key:
VEEV Trinidad virus = format: cell-based, Venezuelan Equine Encephalitis virus
DENV = format: cell-based, Dengue virus
RVFV = format: cell-based, Rift Valley Fever virus
WNV = format: cell-based, West Nile virus
LASV = format: cell-based, Lhasa virus
HCV = format: cell-based, hepatitis C virus
EBOV [1] = format: cell-based, Ebola virus
CHK = format: cell-based, chikungunya virus
WEEV = format: cell-based, Wester Equine Encephalitis virus
EEEV = format: cell-based, Easter Equine Encephalitis virus
PTV = format: cell-based, Punta Toro Virus
EBOV [2] = test system: EBOV; parameters: species or system mice; conditions: mouse, in vivo, ip
Marburg virus = test system: Marburg virus; parameters: species or system mice; conditions: mouse, in vivo, ip

Compound	EC99 VEEV (VEEV Trinidad virus) [µM]	EC99 DENV (DENV) [µM]	EC99 RVFV (RVFV) [µM]	EC99 WNV (WNV) [µM]	EC99 LASV (LASV) [µM]	also measured
CN(C)c1ccc2nc3ccc(N)cc3[s+]c2c1.[Cl-] [Azure A]	0.1 to 1	1	–	–	–	–
CNc1ccc2nc3ccc(N)cc3[s+]c2c1.[Cl-] [Azure C]	0.1	<1	–	–	–	–
CN(C)c1cc(F)c2nc3c(F)cc(=[N+](C)C)cc-3sc2c1 [Compound 3]	<1	–	>5	1	>5	–
CN(C)c1cc(Cl)c2nc3c(Cl)cc(=[N+](C)C)cc-3sc2c1 [Compound 4]	<1	–	0.05	<1	<5	–
Cc1cc(=[N+](C)C)cc2sc3cc(N(C)C)cc(C)c3nc1-2.[Cl-] [Dimethyl MB, dimethylmethylene blue]	0.02 to 0.1	–	<10	0.025 to 0.1	<1	EC99 HCV (HCV): 0.2 to 0.5 µM; EC99 EBOV (EBOV [1]): 0.025 to 0.1 µM; EC99 CHK (CHK): 0.1 to 1 µM; EC99 WEEV (WEEV): 0.1 µM; EC99 EEEV (EEEV): <0.1 µM; EC99 PTV (PTV): 5 µM; prophylaxis of study group against EBOV (EBOV [2]): complete prophylaxis; survival, EBOV (EBOV [2]): 100%; day by which surviving mice had recovered, Marburg (Marburg virus): ≤ 9 days; prophylaxis of study group against Marburg (Marburg virus): 60%
CN(C)c1ccc2nc3ccc(=[N+](C)C)cc-3sc2c1 [Methylene Blue (MB), Methylene Blue]	<1	10	>5	<1	–	EC99 HCV (HCV): 0.02 to 0.08 µM; EC99 EBOV (EBOV [1]): >3.2 µM; EC99 CHK (CHK): 1 µM; EC99 WEEV (WEEV): 1 µM; EC99 EEEV (EEEV): 1 µM
Cc1cc2nc3ccc(N(C)C)cc3[s+]c2cc1N.[Cl-] [Toluidine Blue]	<10	1	–	–	–	–
Azure B	0.1 to 1	1	–	–	–	–
